From patent US11919939B2, “Beta-2-glycoprotein 1 derived peptide and use thereof for treating antiphospholipid syndrome” (Université de Genéve, priority 2017, dated 2024)
“Also recorded” adds a separate entry of the source.

Columns and labels:
[1] = tested on: aPLA (patient-derived anti-β2GP1 antibodies); experiment: ELISA epitope mapping assay (aPLA binding to coated wells); set-up: species or system human; settings: wells coated with 10 μg/ml, aPLA from APS patients
Method: IgG fractions were isolated from patients plasma with Protein-G CL-4B Sepharose (GE Healthcare) as previously described.^16 To assay for endotoxin and lipopeptide contamination of the IgG fractions, we depleted IgG from the aPLA and IgG-ctl (control) fractions by one step of affinity adsorption to Protein G-Sepharose and tested the remaining supernatant for its capacity for monocyte activation, as previously described^17. […] Each experiment was performed with at least 2 different preparations of IgG.
MaxiSorp™ 96 well plates (Nunc) were coated with 10 μg/ml recombinant domains or peptides of β2GP1 prior to incubation with aPLA or control IgG. Secondary anti-human antibodies conjugated to IR800CW (Rockland) were used. Protein- or peptide-bound antibodies were detected and quantified by the Odyssey system (Li-Cor).

[2] = tested on: CD4+ T cells from APS patients; experiment: T cell proliferation assay (CFSE dilution) on PBMC of APS patients; assay type: cell-based, human; set-up: dose or concentration left out as unconfirmed; settings: antigens for 10 days, flow cytometry
Method: Peripheral blood mononuclear cells (PBMC) were isolated by density gradient centrifugation over Lymphoprep™ (Axis-Shield PoC) according to the manufacturer's instructions. T cell proliferation was evaluated by 5,6-carboxylfluorescein diacetate succinimidyl ester (CFSE) dilution assays (eBioscience). PBMC were stained with 0.1 μM CFSE (eBioscience), according to the manufacturer's instructions. Cells were cultured in the presence of antigens ([…]) for 10 days. T cell proliferation was assessed by flow cytometry evaluation of CFSE dilution. Proliferation was expressed as the cell division index (defined as the number of CFSE^low T cells cultured with antigen/number of CFSE^low T cells without antigen). In all cases, the culture medium consisted of X-VIVO 15 (Lonza, Walkersville, MD) supplemented with penicillin (100 U/ml) and streptomycin (0.1 mg/ml).
Single-cell suspensions stained with CFSE (eBioscience) were incubated with anti-CD32 (Biolegend) to prevent nonspecific antibody binding, then stained with antibodies against AF488-CD3, AF647-CD4, (BD Bioscience) major histocompatibility complex (MHC) class II tetramer (Benaroya Research Institute). Staining was assessed with ACCURI C6 flow cytometer (BD Biosciences).

[3] = tested on: human monocytes activated with aPLA; experiment: TNF production in human monocytes activated with aPLA; assay type: cell-based; settings: domains or peptides at 10 μg/ml
Method: Monocytes were isolated from blood buffy coats of healthy volunteers as previously described.^14, 15 Monocyte purity routinely consisted of >90% CD14^+ cells, <1% CD3^+ cells, and <1% CD19^+ cells as assessed by flow cytometry. Cells were cultured in RPMI containing 10% Fetal Bovine Serum (FBS; Gibco BRL-Life Technologies). Each experiment was performed with at least three different preparations of monocytes.
The cells were treated with recombinant domains or peptides of β2GP1 at 10 μg/ml prior to incubation with aPLA or control IgG. Supernatants were collected for TNF quantification by ELISA (R&D System).

| aPLA binding to peptide- or domain-coated well [1] | Molecule | Inhibition of TNF production induced by aPLA [3] | further results |
| --- | --- | --- | --- |
| involved in the binding of aPLA | C66A: alanine scanning mutant of p6 (CKPGYVSRGGMRKFIAPLTG; listed as Homo sapiens) |  |  |
| involved in the binding of aPLA | F64A: alanine scanning mutant of p6 (CKPGYVSRGGMRKAICPLTG; listed as Homo sapiens) |  |  |
| involved in the binding of aPLA | G59A: alanine scanning mutant of p6 (CKPGYVSRAGMRKFICPLTG; listed as Homo sapiens) |  |  |
| involved in the binding of aPLA | G60A: alanine scanning mutant of p6 (CKPGYVSRGAMRKFICPLTG; listed as Homo sapiens) |  |  |
| involved in the binding of aPLA | M61A: alanine scanning mutant of p6 (CKPGYVSRGGARKFICPLTG; listed as Homo sapiens) |  |  |
| involved in the binding of aPLA | R58A: alanine scanning mutant of p6 (CKPGYVSAGGMRKFICPLTG; listed as Homo sapiens) |  |  |
| involved in the binding of aPLA | R62A: alanine scanning mutant of p6 (CKPGYVSRGGMAKFICPLTG; listed as Homo sapiens) |  |  |
|  | p10: 20-mer overlapping peptide of β2GP1 domain I-II, SEQ ID NO:44 (ENGAVRYTTFEYPNTISFSC; listed as Homo sapiens) | had no effect |  |
|  | p11: 20-mer overlapping peptide of β2GP1 domain I-II, SEQ ID NO:45 (EYPNTISFSCNTGFYLNGAD; listed as Homo sapiens) | had no effect |  |
| efficiently interacted with aPLA | domain III-IV: recombinant fusion protein of β2GP1 domains III-IV (protein, left off: small tags and cut ends) PIICPPPSIPTFATLRVYKPSAGNNSLYRDTAVFECLPQHAMFGNDTITCTTHGNWTKLPECREVKCPFPSRPDNGFVNYPAKPTLYYKDKATFGCHDGYSLDGPEEIECTKLGNWSAMPSCKA | significantly decreased the production of TNF induced by aPLA | aPLA binding to peptide- or domain-coated well ([1]; listed as domain III): binding of aPLA |
|  | domain V: recombinant fusion protein of β2GP1 domain V (protein, left off: small tags and cut ends) SCKVPVKKATVVYQGERVKIQEKFKNGMLHGDKVSFFCKNKEKKCSYTEDAQCIDGTIEVPKCFKEHSSLAFWKTDASDVKPC | significantly decreased the production of TNF induced by aPLA |  |
| binding of aPLA | domain I-II: recombinant fusion protein of β2GP1 sushi domain I and II, SEQ ID NO:37 (protein, listed as Homo sapiens) MISPVLILFSSFLCHVAIAGRTCPKPDDLPFSTVVPLKTFYEPGEEITYSCKPGYVSRGGMRKFICPLTGLWPINTLKCTPRVCPFAGILENGAVRYTTFEYPNTISFSCNTGFYLNGADSAKCTEEGKWSPELPVCA | significantly decreased the production of TNF induced by aPLA | CD4+ T cell proliferative response (CD4+CFSElow) [2]: induce proliferation of T cells; CD4+ T cell proliferative response (CD4+CFSElow) ([2]; listed as β2GP1-domain I-II): proliferative responses were detected |
| binding of aPLA | reduced β2GP1: reduced β2GP1 exposing the cryptic epitope (protein) GRTCPKPDDLPFSTVVPLKTFYEPGEEITYSCKPGYVSRGGMRKFICPLTGLWPINTLKCTPRVCPFAGILENGAVRYTTFEYPNTISFSCNTGFYLNGADSAKCTEEGKWSPELPVCAPIICPPPSIPTFATLRVYKPSAGNNSLYRDTAVFECLPQHAMFGNDTITCTTHGNWTKLPECREVKCPFPSRPDNGFVNYPAKPTLYYKDKATFGCHDGYSLDGPEEIECTKLGNWSAMPSCKASCKVPVKKATVVYQGERVKIQEKFKNGMLHGDKVSFFCKNKEKKCSYTEDAQCIDGTIEVPKCFKEHSSLAFWKTDASDVKPC | no effect on aPLA activity | CD4+ T cell proliferative response (CD4+CFSElow) [2]: induce proliferation of T cells; also recorded: proliferative responses were detected |
| binding of aPLA | β-2-Glycoprotein 1 (protein, native β2GP1 purified from Human Plasma (Prospecbio)) GRTCPKPDDLPFSTVVPLKTFYEPGEEITYSCKPGYVSRGGMRKFICPLTGLWPINTLKCTPRVCPFAGILENGAVRYTTFEYPNTISFSCNTGFYLNGADSAKCTEEGKWSPELPVCAPIICPPPSIPTFATLRVYKPSAGNNSLYRDTAVFECLPQHAMFGNDTITCTTHGNWTKLPECREVKCPFPSRPDNGFVNYPAKPTLYYKDKATFGCHDGYSLDGPEEIECTKLGNWSAMPSCKASCKVPVKKATVVYQGERVKIQEKFKNGMLHGDKVSFFCKNKEKKCSYTEDAQCIDGTIEVPKCFKEHSSLAFWKTDASDVKPC | no effect on aPLA activity | CD4+ T cell proliferative response (CD4+CFSElow) [2]: unable to significantly stimulate T cell proliferation |

| Molecule | aPLA binding to peptide- or domain-coated well [1] | Inhibition of TNF production induced by aPLA [3] | further results |
| --- | --- | --- | --- |
| C14A: alanine scanning mutant of p1 (MISPVLILFSSFLAHVAIAG; listed as Homo sapiens) | significantly decreased the binding of aPLA |  |  |
| F9A: alanine scanning mutant of p1 (MISPVLILASSFLCHVAIAG; listed as Homo sapiens) | significantly decreased the binding of aPLA |  |  |
| F12A: alanine scanning mutant of p1 (MISPVLILFSSALCHVAIAG; listed as Homo sapiens) | significantly decreased the binding of aPLA |  |  |
| I7A: alanine scanning mutant of p1 (MISPVLALFSSFLCHVAIAG; listed as Homo sapiens) | significantly decreased the binding of aPLA |  |  |
| L8A: alanine scanning mutant of p1 (MISPVLIAFSSFLCHVAIAG; listed as Homo sapiens) | significantly decreased the binding of aPLA |  |  |
| MISPVLILFSSFLCHVAIAG [p1] | able to bind p1 (SEQ ID NO:32) as potently as p6; also recorded: interact with aPLA | diminished the production of TNF induced by aPLA | CD4+ T cell proliferative response (CD4+CFSElow) [2]: significantly increased; also recorded: induced the proliferation of CD4^+ T cells; CD4+ T cell proliferative response (CD4+CFSElow) ([2]; listed as peptide 1): carries antigenic determinant for CD4^+ T cell proliferation |
| S11A: alanine scanning mutant of p1 (MISPVLILFSAFLCHVAIAG; listed as Homo sapiens) | significantly decreased the binding of aPLA |  |  |
| p3: 20-mer overlapping peptide of β2GP1 domain I-II, SEQ ID NO:39 (RTCPKPDDLPFSTVVPLKTF; listed as Homo sapiens) | bound to p3 with a similar efficiency compared to p1 |  |  |
| p6: 20-mer peptide of β2GP1 domain I-II containing epitope R39-R43, SEQ ID NO:33 (CKPGYVSRGGMRKFICPLTG; listed as Homo sapiens) | interacted similarly with both peptides; also recorded: interact with aPLA | diminished the production of TNF induced by aPLA |  |
